Reference: patent publication US9282743B2, “Chemical compounds” (Syngenta Participations AG, priority 2011, dated 2016)

How the values were obtained:
[1] = tested on: Echinochloa crus-galli (ECHCG); assay: Example B7: pre application on weeds, ECHCG; format: in vivo; conditions: 312 h, pre-emergence spray one day after sowing, evaluated after 13 days, read-out: Pre application on weeds, ECHCG (100=total damage to plant; 0=no damage to plant)
Description: (§1) Lolium perenne (LOLPE), Alopecurus myosuroides (ALOMY), Echinochloa crus-galli (ECHCG) and Avena fatua (AVEFA). Activity Against Weeds Seeds of a variety of test species were sown in standard soil in pots. After cultivation for one day under controlled conditions in a glasshouse (at 24/16° C., day/night; 14 hours light; 65% humidity), the plants were sprayed with an aqueous spray solution derived from the formulation of the technical active ingredient in acetone/water (50:50) solution containing 0.5% Tween 20 (polyoxyethelyene sorbitan monolaurate, CAS RN 9005-64-5). The test plants were then grown in a glasshouse under controlled conditions in a glasshouse (at 24/16° C., day/night; 14 hours light; 65% humidity) and watered twice daily. After 13 days, the test was evaluated (100=total damage to plant; 0=no damage to plant).

[2] = tested on: Winter wheat (TRZAW); assay: Example B8: post application on wheat, with and without safener cloquintocet-mexyl; format: in vivo; conditions: after 13 days, 100 = total damage, 0 = no damage
Description: Application with Safener (Cloquintocet-Mexyl) Winter wheat seeds with a seed treatment of cloquintocet-mexyl applied at a rate of 0.5 g/kg seeds were sown in standard soil in pots. After cultivation for 8 days under controlled conditions in a glasshouse (at 24/16° C., day/night; 14 hours light; 65% humidity), the plants were sprayed with an aqueous spray solution derived from the formulation of the technical active ingredient in acetone/water (50:50) solution containing 0.5% Tween 20 (polyoxyethelyene sorbitan monolaurate, CAS RN 9005-64-5). The test plants were then grown in a glasshouse under controlled conditions in a glasshouse (at 24/16° C., day/night; 14 hours light; 65% humidity) and watered twice daily. After 13 days, the test was evaluated (100=total damage to plant; 0=no damage to plant).

[3] = tested on: Alopecurus myosuroides (ALOMY); assay: Example B6: post application on weeds, ALOMY; format: in vivo; conditions: 312 h, after 13 days, 100 = total damage, 0 = no damage, read-out: ALOMY damage to plant
Description: as §1, with “8 days” for “one day”

[4] = tested on: Avena fatua (AVEFA); assay: Example B6: post application on weeds, AVEFA; format: in vivo; conditions: 312 h, after 13 days, 100 = total damage, 0 = no damage, read-out: AVEFA damage to plant
Description: as §1, with “8 days” for “one day”

[5] = tested on: Avena fatua (AVEFA); assay: Example B7: pre application on weeds, AVEFA; format: in vivo; conditions: 312 h, pre-emergence spray one day after sowing, evaluated after 13 days, read-out: Pre application on weeds, AVEFA (100=total damage to plant; 0=no damage to plant)
Description: as §1

[6] = tested on: Lolium perenne (LOLPE); assay: Example B6: post application on weeds, LOLPE; format: in vivo; conditions: 312 h, after 13 days, 100 = total damage, 0 = no damage, read-out: LOLPE damage to plant
Description: as §1, with “8 days” for “one day”

[7] = tested on: Lolium perenne (LOLPE); assay: Example B7: pre application on weeds, LOLPE; format: in vivo; conditions: 312 h, pre-emergence spray one day after sowing, evaluated after 13 days, read-out: Pre application on weeds, LOLPE (100=total damage to plant; 0=no damage to plant)
Description: as §1

[8] = tested on: Echinochloa crus-galli (ECHCG); assay: Example B6: post application on weeds, ECHCG; format: in vivo; conditions: 312 h, after 13 days, 100 = total damage, 0 = no damage, read-out: ECHCG damage to plant
Description: as §1, with “8 days” for “one day”

[9] = tested on: Alopecurus myosuroides (ALOMY); assay: Example B7: pre application on weeds, ALOMY; format: in vivo; conditions: 312 h, pre-emergence spray one day after sowing, evaluated after 13 days, read-out: Pre application on weeds, ALOMY (100=total damage to plant; 0=no damage to plant)
Description: as §1

[10] = 250 g/ha + 0.5 g/kg seeds cloquintocet-mexyl

melting point	SMILES	pest or weed control at 250 g/ha [1] [%]	TRZAW damage to plant ([2]; 62.5 g/ha + 0.5 g/kg seeds cloquintocet-mexyl)	TRZAW damage to plant ([2]; 62.5 g/ha, without safener)	pest or weed control at 250 g/ha [3] [%]	pest or weed control at 250 g/ha [4] [%]	pest or weed control at 250 g/ha [5] [%]	pest or weed control at 250 g/ha [6] [%]	pest or weed control at 250 g/ha [7] [%]	pest or weed control at 250 g/ha [8] [%]	pest or weed control at 250 g/ha [9] [%]	TRZAW damage to plant [2, 10]	TRZAW damage to plant ([2]; 250 g/ha, without safener)
138 to 139 °C	CCOC(=O)Oc1c(-c2c(Cl)cc(C)cc2OC)c(=O)n2n1CCN(OC)CC2 [Compound P1.20]												
117 to 118 °C	CCOC(=O)Oc1c(-c2cc(C)c(C)cc2C)c(=O)n2n1CCN(OC)CC2 [Compound P1.21]												
240 °C (dec.)	CCc1cc(C)cc(CC)c1C1C(=O)N2CCN(OC)CCN2C1=O [Compound P2.3, 8-(2,6-Diethyl-4-methyl-phenyl)-3-methoxy-tetrahydro-pyrazolo[1,2-a][1,2,5]triazepine-7,9-dione]	100	0	60	100	100	90	100	100	100	100		
248 to 250 °C	CON1CCN2C(=O)C(c3cc(-c4ccc(Cl)cc4)ccc3C)C(=O)N2CC1 [Compound P2.7]												
	C#Cc1cc(C)c(C2C(=O)N3CCN(OC)CCN3C2=O)c(C)c1 [Compound P2.8]	10			60	40	10	70	60	60	80	10	40
	CON1CCN2C(=O)C(c3c(C)cc(Br)cc3C)C(=O)N2CC1 [Compound P2.9]	40			60	60	20	70	80	60	80	20	60
	CON1CCN2C(=O)C(c3c(Cl)cc(C)cc3Br)C(=O)N2CC1 [Compound P2.10]	100			80	70	60	90	100	80	100	20	70
	CON1CCN2C(=O)C(c3c(C)cc(Cl)cc3Br)C(=O)N2CC1 [Compound P2.11]	70			70	60	50	70	80	60	80	20	50
	COc1cc(C)cc(C)c1C1C(=O)N2CCN(OC)CCN2C1=O [Compound P2.12]	60			80	80	60	80	70	90	80	30	70
171 to 173 °C	CON1CCN2C(=O)C(c3cc(C)c(C)cc3C)C(=O)N2CC1 [Compound P2.19]												
258 to 260 °C	CON1CCN2C(=O)C(c3c(C)cc(-c4ccc(Cl)cc4)cc3C)C(=O)N2CC1 [Compound P2.20]												
292 to 294 °C	CON1CCN2C(=O)C(c3c(C)cc(-c4ccc(F)cc4)cc3C)C(=O)N2CC1 [Compound P2.21]												
